The species entered for assay [1] is Homo sapiens. Briefly: Binding affinity to CGAATTCG dsDNA (unknown origin) assessed as isosbestic point at 2.5 uM by UV-vis spectrophotometry.
For assay [2], the species on record is Homo sapiens. Kind of assay: Binding affinity to CATATATAT dsDNA (unknown origin) assessed as isosbestic point at 2.5 uM by UV-vis spectrophotometry.
For assay [3], the species on record is Homo sapiens. Kind of assay: Binding affinity to CGCGCGCG dsDNA (unknown origin) assessed as isosbestic point at 2.5 uM by UV-vis spectrophotometry.
Assay [4] is described as follows: Binding affinity to biotin labelled 5'-CGAATTCGTCTCCGAATTCG-3' hairpin dsDNA (unknown origin) immobilized on biosensor chip by surface plasmon resonance analysis. More on the design: species or system Homo sapiens.
Assay [5] is described as follows: Binding affinity to biotin labelled 5'-CATATATATCCCCATATATATG-3' hairpin dsDNA (unknown origin) immobilized on biosensor chip by surface plasmon resonance analysis. More on the design: species or system Homo sapiens. A general note: SPR reads the build-up and loss of mass on a sensor chip optically.
The nature of assay [6]: Binding affinity to biotin labelled 5'-CGCGCGCGTTTTCGCGCGCG-3' hairpin dsDNA (unknown origin) immobilized on biosensor chip by surface plasmon resonance analysis. The arrangement: species or system Homo sapiens.
Assay [7] is filed under the species Homo sapiens. Briefly: Ratio of primary binding constant to secondary binding constant for biotin labelled 5'-CATATATATCCCCATATATATG-3' hairpin dsDNA (unknown origin) immobilized on biosensor chip by surface plasmon resonance analysis.
For assay [8], the species on record is Homo sapiens. Briefly: Ratio of primary binding constant to secondary binding constant for biotin labelled 5'-CGAATTCGTCTCCGAATTCG-3' hairpin dsDNA (unknown origin) immobilized on biosensor chip by surface plasmon resonance analysis.
The species entered for assay [9] is Homo sapiens. Kind of assay: Binding affinity to GAATAATCGCGATTATTC dsDNA (39 bp) (unknown origin) assessed as slow binding constant.
The species named for assay [10] is Homo sapiens. Kind of assay: Binding affinity to GAATAATCGCGATTATTC dsDNA (39 bp) (unknown origin) assessed as long lasting constant.
Assay [11] is filed under the species Homo sapiens. Kind of assay: Selectivity ratio of Kd for biotin labelled 5'-CATATATATCCCCATATATATG-3' hairpin dsDNA (unknown origin) to Kd for biotin labelled 5'-CGAATTCGTCTCCGAATTCG-3' hairpin dsDNA (unknown origin).
The nature of assay [12]: Binding affinity to biotin labelled 5'-CATATATATCCCCATATATATG-3' hairpin dsDNA (unknown origin) immobilized on streptavidin-derivatized gold chip incubated for 5 mins followed by dissociation period of 5 mins by surface plasmon resonance analysis. More on the design: species or system Homo sapiens.
The nature of assay [13]: Binding affinity to fish sperm DNA assessed as hypochromicity change at 30 uM by UV-vis spectrophotometry relative to control. The settings on record: Hyperoartia.
The species named for assay [14] is Homo sapiens. Briefly: Binding affinity to CGAATTCG dsDNA (unknown origin) assessed as spectral changes at 2.5 uM by UV-vis spectrophotometry.
The species named for assay [15] is Homo sapiens. Kind of assay: Binding affinity to CATATATAT dsDNA (unknown origin) assessed as spectral changes at 2.5 uM by UV-vis spectrophotometry.
Assay [16] is filed under the species Homo sapiens. Kind of assay: Binding affinity to CGCGCGCG dsDNA (unknown origin) assessed as spectral changes at 2.5 uM by UV-vis spectrophotometry.
The species named for assay [17] is Homo sapiens. Briefly: Selectivity ratio of Kd for biotin labelled 5'-CGCGCGCGTTTTCGCGCGCG-3' hairpin dsDNA (unknown origin) to Kd for biotin labelled 5'-CATATATATCCCCATATATATG-3' hairpin dsDNA (unknown origin).

The source made the active and inactive calls. No cut-off for these calls is given here.

As to `[O-][N+]1=C(Nc2ccc(Nc3cccc(NC4=[N+]([O-])CCN4)c3)cc2)NCC1`, the Activity in assay [1] was 325 nm; in [2], 335 nm. Moreover, the result in [3] was inactive. Besides, the figures for the Kd in assay [4], in assay [5] and in assay [6] (read-out: Kd) were 0.568 µM, 1.79 µM and 66.7 µM, respectively. Besides, the Ratio in [7] and in [8] was 100 in each case. In addition, the K in assay [9] was 38 M⁻¹ s⁻¹; in assay [10] it was 0.00265 s⁻¹.
Regarding `O=C(Nc1ccc(NC2=NCCN2)cc1)c1ccc(NC2=NCCN2)cc1`, the Kd is 0.166 µM in assay [4], 0.307 µM in assay [5] and more than 10 µM in [6] (read-out: Kd). In assay [11], the Selectivity ratio turned out to be 1.5. Moreover, the Ratio in assay [7] and in [8] was 100 each time.
As to `N=C(N)Nc1ccc(NC(=O)c2ccc(NC(=N)N)cc2)cc1`, the Kd in [6] (read-out: Kd) was more than 10 µM.
Regarding `CC/N=C(\N)Nc1ccc(NC(=O)Nc2ccc(N/C(N)=N/CC)cc2)cc1`, the equilibrium dissociation constant (Kd) in assay [4] is more than 29 µM; in [5] it was more than 29 µM; in assay [6], “Not Active”.
With `c1cc(NC2=NCCN2)cc(Nc2ccc(NC3=NCCN3)cc2)c1`, the equilibrium dissociation constant (Kd) was 2.7 µM in assay [4], “Not Active” in assay [6] and 2.17 µM in assay [12]. The Ratio in assay [7] and in assay [8] was 100 throughout.
With `[O-][N+]1=C(Nc2ccc(CCc3ccc(NC4=[N+]([O-])CCN4)cc3)cc2)NCC1`, the Activity in assay [13] is 9%. In addition, the Kd was 0.87 µM in assay [4], 4 µM in assay [5] and 76.9 µM in assay [6] (read-out: Kd). Further, the Ratio in assay [7] and in assay [8] was 30 each time.
Turning to `CCO[N+]1=C(Nc2ccc(CCc3ccc(NC4=[N+](OCC)CCN4)cc3)cc2)NCC1`, in [13], the Activity is 9%. Moreover, the dissociation constant Kd in assay [4], in [5] and in [6] (read-out: Kd) was more than 29 µM throughout. Moreover, the Ratio in assay [7] and in assay [8] was 100 each time.
Regarding `CC(C)/N=C(\N)Nc1ccc(NC(=O)c2ccc(N/C(N)=N/C(C)C)cc2)cc1`, the Kd in assay [6] (read-out: Kd) is more than 10 µM.
Take `CO[N+]1=C(Nc2ccc(NC(=O)c3ccc(NC4=[N+](OC)CCN4)cc3)cc2)NCC1`: the Activity in assay [13] was found to be 9%. In addition, the values for the Kd in [4], in assay [5] and in assay [6] (read-out: Kd) were 0.256 µM, 0.351 µM and more than 10 µM, respectively. For the same compound, in assay [11], the Selectivity ratio is 1.5. Also, the Ratio in assay [7] and in assay [8] was 100 in each case.
Turning to `O=C(Nc1ccc(NC2=[N+]([O-])CCN2)cc1)c1ccc(NC2=[N+]([O-])CCN2)cc1`, in assay [13], the Activity is 9%. The outcome in [14], in [15] and in assay [16] was Active. Further, the figures for the Kd in assay [4], in assay [5] and in assay [6] (read-out: Kd) were 0.077 µM, 0.273 µM and 18.5 µM, respectively. In addition, the Selectivity ratio in assay [11] turned out to be 3.5. Further, the Ratio in [7] and in [8] was 100 each time.
Consider `CC/N=C(\N)Nc1ccc(NC(=O)c2ccc(N/C(N)=N/CC)cc2)cc1`, for which, in [6] (read-out: Kd), the equilibrium dissociation constant (Kd) was more than 10 µM.
With `c1cc(NC2=NCCN2)ccc1CCc1ccc(NC2=NCCN2)cc1`, the values for the Kd in [4], in assay [5] and in assay [6] (read-out: Kd) were 2.78 µM, 4.35 µM and 19.6 µM, respectively. Besides, the Ratio in [7] and in [8] was 5 each time.
Turning to `O=C(Nc1ccc(NC2=NCCN2)cc1)Nc1ccc(NC2=NCCN2)cc1`, the Kd in assay [4] amounted to 11.6 µM; in [5], 8.06 µM; in assay [6] (read-out: Kd), 159 µM. The Ratio in [7] and in assay [8] was 100 throughout. The Selectivity ratio in assay [17] worked out at 10.

As a reminder, the Kd is the equilibrium constant for the complex coming apart.

(Values after ChEMBL document CHEMBL3774306, “Bisimidazoline arylamides binding to the DNA minor groove: N1-hydroxylation enhances binding affinity and selectivity to AATT sites” (Medchemcomm, 2015).)
